In patent publication US20240067693A1, “POLYPEPTIDES AND USES THEREOF” (MEDIMMUNE LIMITED, priority 2020, published 2024):
Numbered stars: 1 amine (or outer) side, 2 acyl side, 3 side chain; on linkers, the order of the positions; unused ones are H or OH. Bridge positions count the residues as written; N and C are the ends. Square brackets hold non-standard residues; d marks the D form. Side chains are listed from the residue outwards. Peptide text beside a SMILES is read from it. * marks the point of attachment. C18 diacid = O=C(O)CCCCCCCCCCCCCCCCC(=O)*; γGlu = O=C(O)[C@H](CCC(=O)[*:2])N[*:1]; Aib = CC(C)(N)C(=O)O

What was measured:
[1] = molecular target: T1, human calcitonin receptor (hCTR) (Homo sapiens, UniProt P30988); assay: cAMP production in 1321N1 cells with stable recombinant expression of human calcitonin receptor (hCTR); assay type: cell-based; conditions: cAMP, 1321N1 cells, assay buffer with 0.1% BSA; read-out: EC50 (pM) hCTR
T1 construct: expressed in transfected cells
T1 sequence (P30988 25-474): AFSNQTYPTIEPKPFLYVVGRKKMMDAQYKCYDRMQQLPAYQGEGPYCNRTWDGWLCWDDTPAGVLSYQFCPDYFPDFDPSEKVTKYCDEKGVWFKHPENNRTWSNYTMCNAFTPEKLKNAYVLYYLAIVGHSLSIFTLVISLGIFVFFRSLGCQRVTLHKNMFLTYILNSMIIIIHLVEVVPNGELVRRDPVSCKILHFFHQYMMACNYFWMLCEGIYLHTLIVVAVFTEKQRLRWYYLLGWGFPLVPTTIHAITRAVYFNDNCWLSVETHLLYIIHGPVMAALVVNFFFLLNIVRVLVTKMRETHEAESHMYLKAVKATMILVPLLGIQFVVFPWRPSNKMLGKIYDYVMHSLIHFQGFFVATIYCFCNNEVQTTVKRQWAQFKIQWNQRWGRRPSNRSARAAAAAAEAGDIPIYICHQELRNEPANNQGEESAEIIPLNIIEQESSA
Outline: (§1)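 EC50 values come from 4-parameter logistic fits of HTRF cAMP signal, normalised to maximal calcitonin or amylin effect. Peptides were tested in duplicate for 30 min at RT in IBMX-containing (0.5 mM) BSA/HEPES buffer pH 7.4 on stable 1321N1 (human CTR, AMYR3) or HEK (rat CTR, AMYR3) lines.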

[2] = molecular target: T2, human amylin receptor (calcitonin receptor co-expressed with receptor activity modifying protein, RAMP3) (hAMYR3) (Homo sapiens, UniProt O60896+P30988); assay: cAMP production in 1321N1 cells with stable recombinant expression of human amylin receptor (hAMYR3); assay type: cell-based; conditions: for Ratio (selectivity hAMYR vs hCTR, ratio of EC50 values at the two receptors): EC50 hCTR / EC50 hAMYR3; for EC50: cAMP, 1321N1 cells, assay buffer with 0.1% BSA, read-out: EC50 (pM) hAMYR3
T2 construct: expressed in transfected cells
T2 sequence (P30988 25-474): T1 sequence (P30988 25-474)
T2 sequence (O60896 24-148 partner): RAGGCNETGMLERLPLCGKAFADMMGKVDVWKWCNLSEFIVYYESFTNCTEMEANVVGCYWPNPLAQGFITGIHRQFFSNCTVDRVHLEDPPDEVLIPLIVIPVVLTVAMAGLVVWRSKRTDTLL
Outline: as §1

| EC50 [1] [pM] | Ratio (selectivity hAMYR vs hCTR, ratio of EC50 values at the two receptors) [2] | EC50 [2] [pM] | Compound |
| --- | --- | --- | --- |
| 235 | 2 | 98 | CC[C@H](C)[C@H](NC(=O)[C@@H]1CCCN1C(=O)CNC(=O)[C@H](Cc1ccccc1)NC(=O)[C@H](CC(N)=O)NC(=O)C(C)(C)NC(=O)[C@H](CO)NC(=O)[C@H](CO)NC(=O)[C@H](Cc1c[nH]cn1)NC(=O)[C@H](CO)NC(=O)[C@H](CC(C)C)NC(=O)[C@H](Cc1ccccc1)NC(=O)[C@H](CC(N)=O)NC(=O)[C@H](C)NC(=O)[C@H](CC(C)C)NC(=O)[C@H](CCCNC(=N)N)NC(=O)[C@H](CCC(N)=O)NC(=O)[C@@H](NC(=O)[C@H](C)NC(=O)[C@@H]1CSSC[C@H](NC(=O)[C@H](CCCCN)NC(=O)[C@@H](N)CCCCNC(=O)CC[C@H](NC(=O)CCCCCCCCCCCCCCCCC(=O)O)C(=O)O)C(=O)N[C@@H](CC(N)=O)C(=O)N[C@@H]([C@@H](C)O)C(=O)N[C@@H](C)C(=O)N[C@@H]([C@@H](C)O)C(=O)N1)[C@@H](C)O)C(=O)N[C@@H](CC(C)C)C(=O)N1CCC[C@H]1C(=O)N1CCC[C@H]1C(=O)N[C@H](C(=O)N1CCC[C@H]1C(=O)N[C@H](C(=O)NCC(=O)N[C@@H](CO)C(=O)N[C@@H](CC(N)=O)C(=O)N[C@H](C(=O)N[C@@H](Cc1ccc(O)cc1)C(N)=O)[C@@H](C)O)C(C)C)[C@@H](C)O [Peptide 53, K(γE-C18diacid)K[CNTATC]ATQRLANFLSHSS(Aib)NFGPILPPTPVGSNTY-amide] (H-K([γGlu-C18 diacid])KCNTATCATQRLANFLSHSS[Aib]NFGPILPPTPVGSNTY-NH2; disulfide 3-8; N-terminus assumed) |
| 1510 | 0.2 | 7590 | CC[C@H](C)[C@H](NC(=O)[C@@H]1CCCN1C(=O)CNC(=O)[C@H](Cc1ccccc1)NC(=O)[C@H](CC(N)=O)NC(=O)C(C)(C)NC(=O)[C@H](CO)NC(=O)[C@H](CO)NC(=O)[C@H](Cc1c[nH]cn1)NC(=O)[C@H](CO)NC(=O)[C@H](CC(C)C)NC(=O)[C@H](Cc1ccccc1)NC(=O)[C@H](CC(N)=O)NC(=O)[C@H](C)NC(=O)[C@H](CC(C)C)NC(=O)[C@H](CCCNC(=N)N)NC(=O)[C@H](CCC(N)=O)NC(=O)[C@@H](NC(=O)[C@H](C)NC(=O)[C@@H]1CSSC[C@H](NC(=O)[C@H](CCCCN)NC(=O)[C@@H](N)CCCCNC(=O)CC[C@H](NC(=O)CCCCCCCCCCCCCCCCC(=O)O)C(=O)O)C(=O)N[C@@H](CC(N)=O)C(=O)N[C@@H]([C@@H](C)O)C(=O)N[C@@H](C)C(=O)N[C@@H]([C@@H](C)O)C(=O)N1)[C@@H](C)O)C(=O)N[C@@H](CC(C)C)C(=O)N1CCC[C@H]1C(=O)N1CCC[C@H]1C(=O)N[C@H](C(=O)N[C@@H](CC(N)=O)C(=O)N[C@H](C(=O)N1CCC[C@H]1C(=O)N[C@@H](CO)C(=O)N[C@@H](CC(N)=O)C(=O)N[C@H](C(=O)N[C@@H](Cc1ccc(O)cc1)C(N)=O)[C@@H](C)O)C(C)C)[C@@H](C)O [Peptide 54, K(γE-C18diacid)K[CNTATC]ATQRLANFLSHSS(Aib)NFGPILPPTNVPSNTY-amide] (H-K([γGlu-C18 diacid])KCNTATCATQRLANFLSHSS[Aib]NFGPILPPTNVPSNTY-NH2; disulfide 3-8; N-terminus assumed) |
| 1870 | 3 | 678 | CC[C@H](C)[C@H](NC(=O)[C@@H]1CCCN1C(=O)CNC(=O)[C@H](Cc1ccccc1)NC(=O)[C@H](CC(N)=O)NC(=O)C(C)(C)NC(=O)[C@H](CO)NC(=O)[C@H](CO)NC(=O)[C@H](Cc1c[nH]cn1)NC(=O)[C@H](CO)NC(=O)[C@H](CC(C)C)NC(=O)[C@H](Cc1ccccc1)NC(=O)[C@H](CC(N)=O)NC(=O)[C@H](C)NC(=O)[C@H](CC(C)C)NC(=O)[C@H](CCCNC(=N)N)NC(=O)[C@H](CCC(N)=O)NC(=O)[C@@H](NC(=O)[C@H](C)NC(=O)[C@@H]1CSSC[C@H](NC(=O)[C@H](CCCCN)NC(=O)[C@@H](N)CCCCNC(=O)CC[C@H](NC(=O)CCCCCCCCCCCCCCCCC(=O)O)C(=O)O)C(=O)N[C@@H](CC(N)=O)C(=O)N[C@@H]([C@@H](C)O)C(=O)N[C@@H](C)C(=O)N[C@@H]([C@@H](C)O)C(=O)N1)[C@@H](C)O)C(=O)N[C@@H](CC(C)C)C(=O)N1CCC[C@H]1C(=O)N1CCC[C@H]1C(=O)N[C@H](C(=O)N[C@@H](CC(N)=O)C(=O)N[C@H](C(=O)NCC(=O)N[C@@H](CO)C(=O)N1CCC[C@H]1C(=O)N[C@H](C(=O)N[C@@H](Cc1ccc(O)cc1)C(N)=O)[C@@H](C)O)C(C)C)[C@@H](C)O [Peptide 55, K(γE-C18diacid)K[CNTATC]ATQRLANFLSHSS(Aib)NFGPILPPTNVGSPTY-amide] (H-K([γGlu-C18 diacid])KCNTATCATQRLANFLSHSS[Aib]NFGPILPPTNVGSPTY-NH2; disulfide 3-8) |
| 493 | 7 | 70 | CC[C@H](C)[C@H](NC(=O)[C@@H]1CCCN1C(=O)CNC(=O)[C@H](Cc1ccccc1)NC(=O)[C@H](CC(N)=O)NC(=O)C(C)(C)NC(=O)[C@H](CO)NC(=O)[C@H](CO)NC(=O)[C@H](Cc1c[nH]cn1)NC(=O)[C@@H](NC(=O)[C@H](CC(C)C)NC(=O)[C@H](Cc1ccccc1)NC(=O)[C@H](CC(N)=O)NC(=O)[C@H](C)NC(=O)[C@H](CC(C)C)NC(=O)[C@H](CCCNC(=N)N)NC(=O)[C@H](CCC(N)=O)NC(=O)[C@@H](NC(=O)[C@H](C)NC(=O)[C@@H]1CSSC[C@H](NC(=O)[C@@H](N)CCCCNC(=O)CC[C@H](NC(=O)CCCCCCCCCCCCCCCCC(=O)O)C(=O)O)C(=O)N[C@@H](CC(N)=O)C(=O)N[C@@H]([C@@H](C)O)C(=O)N[C@@H](C)C(=O)N[C@@H]([C@@H](C)O)C(=O)N1)[C@@H](C)O)C(C)C)C(=O)N[C@@H](CC(C)C)C(=O)N1CCC[C@H]1C(=O)N1CCC[C@H]1C(=O)N[C@H](C(=O)N[C@@H](CC(N)=O)C(=O)N[C@H](C(=O)NCC(=O)N[C@@H](CO)C(=O)N[C@@H](CC(N)=O)C(=O)N[C@H](C(=O)N[C@@H](Cc1ccc(O)cc1)C(N)=O)[C@@H](C)O)C(C)C)[C@@H](C)O [Peptide 56, K(γE-C18diacid)[CNTATC]ATQRLANFLVHSS(Aib)NFGPILPPTNVGSNTY-amide] (H-K([γGlu-C18 diacid])CNTATCATQRLANFLVHSS[Aib]NFGPILPPTNVGSNTY-NH2; disulfide 2-7; N-terminus assumed) |
| 65 | 1 | 71 | CC[C@H](C)[C@H](NC(=O)[C@@H]1CCCN1C(=O)CNC(=O)[C@H](Cc1ccccc1)NC(=O)[C@H](CC(N)=O)NC(=O)C(C)(C)NC(=O)[C@H](CO)NC(=O)[C@H](CO)NC(=O)[C@H](Cc1c[nH]cn1)NC(=O)[C@@H](NC(=O)[C@H](CC(C)C)NC(=O)[C@H](Cc1ccccc1)NC(=O)[C@H](CC(N)=O)NC(=O)[C@H](C)NC(=O)[C@H](CC(C)C)NC(=O)[C@H](CCCNC(=N)N)NC(=O)[C@H](CCC(N)=O)NC(=O)[C@@H](NC(=O)[C@H](C)NC(=O)[C@@H]1CSSC[C@H](NC(=O)[C@H](CCCCN)NC(=O)[C@@H](N)CCCCNC(=O)CC[C@H](NC(=O)CCCCCCCCCCCCCCCCC(=O)O)C(=O)O)C(=O)N[C@@H](CC(N)=O)C(=O)N[C@@H]([C@@H](C)O)C(=O)N[C@@H](C)C(=O)N[C@@H]([C@@H](C)O)C(=O)N1)[C@@H](C)O)C(C)C)C(=O)N[C@@H](CC(C)C)C(=O)N1CCC[C@H]1C(=O)N1CCC[C@H]1C(=O)N[C@H](C(=O)N[C@@H](CC(N)=O)C(=O)N[C@H](C(=O)NCC(=O)N[C@@H](CO)C(=O)N[C@@H](CC(N)=O)C(=O)N[C@H](C(=O)N1CCC[C@H]1C(N)=O)[C@@H](C)O)C(C)C)[C@@H](C)O [Peptide 58, K(γE-C18diacid)K[CNTATC]ATQRLANFLVHSS(Aib)NFGPILPPTNVGSNTP-amide] (H-K([γGlu-C18 diacid])KCNTATCATQRLANFLVHSS[Aib]NFGPILPPTNVGSNTP-NH2; disulfide 3-8) |
